Where “and” joins values, the source holds several entries; their conditions need not be identical. Equal entries are not always repeated.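 96-well plates; 48 h exposure; 5 concentrations. Endpoints by linear interpolation between flanking doses. Not reached: highest tested concentration assigned. Here, GI50 denotes the concentration required for 50% inhibition of growth. The concentration for full growth arrest is given as TGI.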
Legend:
Assay in all cases: inhibition of tumour cell growth, NCI panel, 48 h
SK-MEL-5 melanoma = tested on: SK-MEL-5 melanoma
K-562 leukemia = tested on: K-562 leukemia
MDA-MB-231 breast = tested on: MDA-MB-231 breast
RPMI-8226 leukemia = tested on: RPMI-8226 leukemia
KM12 colon = tested on: KM12 colon
HL-60(TB) leukemia = tested on: HL-60(TB) leukemia
A549 NSCLC = tested on: A549 NSCLC
SNB-75 CNS = tested on: SNB-75 CNS

## CC(C)c1cc(CNc2nc(Nc3cc(C4CC4)[nH]n3)cc(N3CCN(C)CC3)n2)on1
SK-MEL-5 melanoma
  GI50: > 10 µM and 1.32 µM
  TGI: > 10 µM and 4.72 µM
K-562 leukemia
  TGI: > 10 µM and 14.5 µM
MDA-MB-231 breast
  GI50: 1.29 µM and 0.151 µM
  TGI: > 10 µM and 5.42 µM
RPMI-8226 leukemia
  GI50: 8.33 µM and 1.7 µM
  TGI: > 10 µM and 5.76 µM
KM12 colon
  TGI: > 10 µM and 10.7 µM
HL-60(TB) leukemia
  GI50: 0.359 µM and 0.087 µM
  TGI: > 10 µM and 1.6 µM
A549 NSCLC
  TGI: > 10 µM and 11.8 µM

## CCCCSCc1nc2nc(Cl)c(Cl)nc2[nH]1
SK-MEL-5 melanoma
  TGI: 28.8 µM
K-562 leukemia
  TGI: 99.5 µM
MDA-MB-231 breast
  TGI: 79.2 µM
RPMI-8226 leukemia
  TGI: 38.2 µM
KM12 colon
  TGI: > 100 µM
A549 NSCLC
  TGI: > 100 µM
SNB-75 CNS
  TGI: 57.5 µM

## CCn1c(-c2nonc2N)nc2c(C#CC(C)(C)O)nc(O[C@@H](CN)c3ccccc3)cc21
SK-MEL-5 melanoma
  GI50: 0.413 µM
  TGI: 0.892 µM
K-562 leukemia
  GI50: 0.122 µM
  TGI: 4.26 µM
MDA-MB-231 breast
  GI50: 0.528 µM
  TGI: 2.65 µM
RPMI-8226 leukemia
  GI50: 0.645 µM
  TGI: 2.7 µM
KM12 colon
  GI50: 0.0578 µM
  TGI: 1.51 µM
HL-60(TB) leukemia
  GI50: 0.0891 µM
  TGI: 0.371 µM
A549 NSCLC
  GI50: 0.108 µM
  TGI: 3.7 µM
SNB-75 CNS
  GI50: 0.122 µM
  TGI: 4.06 µM

## COc1ccc(NC(=O)Nc2ccc(Nc3nc(C)cc(Nc4ccc(C)cc4)n3)cc2)cc1
SK-MEL-5 melanoma
  GI50: 1.6 µM
  TGI: 2.96 µM
MDA-MB-231 breast
  GI50: 0.894 µM
  TGI: 2.46 µM
RPMI-8226 leukemia
  GI50: 0.71 µM
  TGI: 1.65 µM
SNB-75 CNS
  GI50: 1.53 µM
  TGI: 3 µM

## CCCC[P+](c1ccccc1)(c1ccccc1)c1ccccc1
SK-MEL-5 melanoma
  GI50: 0.534 µM
  TGI: 6.63 µM
K-562 leukemia
  GI50: 0.577 µM
  TGI: > 100 µM
MDA-MB-231 breast
  GI50: 9.13 µM
  TGI: > 100 µM
RPMI-8226 leukemia
  GI50: 0.193 µM
  TGI: 0.869 µM
KM12 colon
  GI50: 0.944 µM
  TGI: 66.3 µM
HL-60(TB) leukemia
  GI50: 0.955 µM
  TGI: 6.91 µM
A549 NSCLC
  GI50: 4.4 µM
  TGI: > 100 µM
SNB-75 CNS
  GI50: 4.95 µM
  TGI: > 100 µM

## CCCCN(CCCC)CC(C)(C)C(O)c1ccc(OC)c2ccccc12 (stereo not drawn)
SK-MEL-5 melanoma
  GI50: 2 µM
  TGI: 4.95 µM
K-562 leukemia
  GI50: 2.51 µM
  TGI: 13.6 µM
MDA-MB-231 breast
  GI50: 6.76 µM
  TGI: 21.9 µM
RPMI-8226 leukemia
  GI50: 2.5 µM
  TGI: 5.93 µM
KM12 colon
  GI50: 3.31 µM
  TGI: 16.5 µM
HL-60(TB) leukemia
  GI50: 2.98 µM
  TGI: 15.8 µM
A549 NSCLC
  GI50: 11.1 µM
  TGI: 35.3 µM
SNB-75 CNS
  GI50: 6.31 µM
  TGI: 30.3 µM

## O=C(NCCCNC(=O)OCc1ccc2c(Br)cc(Br)c(O)c2n1)OCc1ccc2c(Br)cc(Br)c(O)c2n1
SK-MEL-5 melanoma
  GI50: > 100 µM
  TGI: > 100 µM
K-562 leukemia
  GI50: > 100 µM
  TGI: > 100 µM
MDA-MB-231 breast
  GI50: > 100 µM
  TGI: > 100 µM
RPMI-8226 leukemia
  GI50: > 100 µM
  TGI: > 100 µM
KM12 colon
  GI50: > 100 µM
  TGI: > 100 µM
HL-60(TB) leukemia
  GI50: > 100 µM
  TGI: > 100 µM
A549 NSCLC
  GI50: > 100 µM
  TGI: > 100 µM
SNB-75 CNS
  GI50: > 100 µM
  TGI: > 100 µM

## CC1CCC2C(C)C3C(CC4C5CC=C6CC(OC7OC(CO)C(O)C(OC8OC(CO)C(O)C(O)C8O)C7OC7OC(C)C(O)C(O)C7O)CCC6(C)C5CCC43C)N2C1 (stereo not drawn)
SK-MEL-5 melanoma
  GI50: > 2.5 µg/mL
  TGI: 33.3 µM and > 2.5 µg/mL
K-562 leukemia
  GI50: > 2.5 µg/mL
  TGI: 54.4 µM and > 2.5 µg/mL
MDA-MB-231 breast
  GI50: > 2.5 µg/mL
  TGI: 27.8 µM and > 2.5 µg/mL
RPMI-8226 leukemia
  GI50: > 2.5 µg/mL
  TGI: 45.9 µM and > 2.5 µg/mL
KM12 colon
  GI50: > 2.5 µg/mL
  TGI: 28.3 µM and > 2.5 µg/mL
HL-60(TB) leukemia
  TGI: 25.4 µM
A549 NSCLC
  GI50: > 2.5 µg/mL
  TGI: 16.7 µM and > 2.5 µg/mL
SNB-75 CNS
  GI50: > 2.5 µg/mL
  TGI: 24.7 µM and > 2.5 µg/mL

## CCOC(=O)CNC(=O)CCCn1c(=O)c2c3ccccc3n(C)c2n2nnc(-c3ccccc3)c12
K-562 leukemia
  GI50: 4.73 µM
  TGI: > 50 µM
MDA-MB-231 breast
  GI50: 14.7 µM
  TGI: 31 µM
RPMI-8226 leukemia
  GI50: 10.7 µM
  TGI: 33.9 µM
KM12 colon
  GI50: > 50 µM
  TGI: > 50 µM
HL-60(TB) leukemia
  GI50: 20.6 µM
  TGI: > 50 µM
A549 NSCLC
  GI50: 32.8 µM
  TGI: > 50 µM
SNB-75 CNS
  GI50: 1.12 µM
  TGI: 3.59 µM

## CCOC(=O)c1cc2cc(NC(=O)c3cc4cc([N+](=O)[O-])ccc4n3C)ccc2n1C
SK-MEL-5 melanoma
  GI50: 74 µM
  TGI: > 100 µM
K-562 leukemia
  GI50: 59.1 µM
  TGI: > 100 µM
MDA-MB-231 breast
  GI50: 2.69 µM
  TGI: 16.3 µM
RPMI-8226 leukemia
  GI50: 49.7 µM
  TGI: > 100 µM
KM12 colon
  GI50: 49 µM
  TGI: > 100 µM
HL-60(TB) leukemia
  GI50: > 100 µM
  TGI: > 100 µM
A549 NSCLC
  GI50: 21.7 µM
  TGI: 55.6 µM

## Cc1c2ncccc2nc2[nH]c3ccc(OCCN(C)C)cc3c12
SK-MEL-5 melanoma
  GI50: 9.77 µM
  TGI: 21.9 µM
K-562 leukemia
  GI50: 0.802 µM
  TGI: 14.6 µM
MDA-MB-231 breast
  GI50: 2.5 µM
  TGI: 16 µM
RPMI-8226 leukemia
  GI50: 2.13 µM
  TGI: 5.91 µM
KM12 colon
  GI50: 1.93 µM
  TGI: 13.6 µM
HL-60(TB) leukemia
  GI50: 3.53 µM
  TGI: 16.5 µM
A549 NSCLC
  GI50: 1.87 µM
  TGI: 10.3 µM

## CC12CCc3ccccc3C1=Nc1ccccc12 (stereo not drawn)
SK-MEL-5 melanoma
  TGI: 30.4 µM
K-562 leukemia
  TGI: > 100 µM
MDA-MB-231 breast
  TGI: > 100 µM
KM12 colon
  TGI: 91.9 µM
HL-60(TB) leukemia
  TGI: 76.6 µM
A549 NSCLC
  TGI: > 100 µM
SNB-75 CNS
  TGI: > 100 µM

## Cc1ccc(C2SCc3nc4ccc(C(=O)c5ccccc5)cc4n32)cc1 (stereo not drawn)
SK-MEL-5 melanoma
  GI50: 1.33 µM
  TGI: 7.48 µM
K-562 leukemia
  GI50: 3.74 µM
  TGI: > 100 µM
MDA-MB-231 breast
  GI50: 3.66 µM
  TGI: 19.4 µM
RPMI-8226 leukemia
  GI50: 10.3 µM
  TGI: > 95 µM
KM12 colon
  GI50: 6.49 µM
  TGI: 35.2 µM
A549 NSCLC
  GI50: 5.99 µM
  TGI: > 63.3 µM
SNB-75 CNS
  GI50: 23.3 µM
  TGI: > 70 µM

## O=C(N=Nc1c(O)[nH]c2c(Cl)cc(Cl)cc12)c1ccncc1
SK-MEL-5 melanoma
  TGI: 33.4 µM
K-562 leukemia
  TGI: 99.5 µM
MDA-MB-231 breast
  TGI: 39.4 µM
KM12 colon
  TGI: > 100 µM
HL-60(TB) leukemia
  TGI: > 100 µM
A549 NSCLC
  TGI: > 100 µM
SNB-75 CNS
  TGI: 95.2 µM

## O=C1NC(=O)C2(CCC(O)C2)c2cc[n+]([O-])cc21 (stereo not drawn)
K-562 leukemia
  TGI: > 100 µM
MDA-MB-231 breast
  TGI: > 100 µM
RPMI-8226 leukemia
  TGI: > 100 µM
KM12 colon
  TGI: > 100 µM
A549 NSCLC
  TGI: > 100 µM
SNB-75 CNS
  TGI: > 100 µM

## COc1cc(OC)c(OC)cc1/C=C1\C=Cc2ccccc21
SK-MEL-5 melanoma
  TGI: 26.1 µM
K-562 leukemia
  TGI: > 100 µM
MDA-MB-231 breast
  TGI: 50.9 µM
RPMI-8226 leukemia
  TGI: > 100 µM
KM12 colon
  TGI: 41.8 µM
HL-60(TB) leukemia
  TGI: 35.2 µM
A549 NSCLC
  TGI: > 100 µM

## O=C1C(Cl)=C(Nc2cccc(C(F)(F)F)c2)C(=O)N1Cc1ccccc1Cl
SK-MEL-5 melanoma
  GI50: 2.79 µM
  TGI: 14.7 µM
K-562 leukemia
  GI50: 4.36 µM
  TGI: 26.5 µM
MDA-MB-231 breast
  GI50: 2.67 µM
  TGI: 17.4 µM
RPMI-8226 leukemia
  GI50: 2.17 µM
  TGI: > 23.5 µM
KM12 colon
  GI50: 12.1 µM
  TGI: 33.5 µM
A549 NSCLC
  GI50: 7.68 µM
  TGI: 27.5 µM
SNB-75 CNS
  GI50: 0.996 µM
  TGI: 9.55 µM

## Cc1ccc(S(=O)(=O)NC(CCC(=O)Nc2ccccc2)C(=O)Nc2ccccc2)cc1 (stereo not drawn)
SK-MEL-5 melanoma
  GI50: 0.226 µM
  TGI: 0.656 µM
RPMI-8226 leukemia
  GI50: 0.309 µM
  TGI: 1.58 µM
HL-60(TB) leukemia
  GI50: 0.55 µM
  TGI: 3.08 µM
A549 NSCLC
  GI50: 0.319 µM
  TGI: 1.76 µM

## COc1cc2nc(-c3ccc(-n4cncc4-c4ccc(N)cc4)cc3)sc2c(OC)c1OC
SK-MEL-5 melanoma
  GI50: 2.74 µM
  TGI: > 100 µM
MDA-MB-231 breast
  GI50: 3.66 µM
  TGI: > 100 µM
A549 NSCLC
  GI50: 3.14 µM
  TGI: 32.5 µM
SNB-75 CNS
  GI50: 5.94 µM
  TGI: 23.5 µM
